Source: patent US9533952B2, “N-prop-2-ynyl carboxamide derivatives and their use as TRPA1 antagonists” (Orion Corporation, priority 2012, dated 2017)

molecular target: TRPA1 (Homo sapiens, UniProt O75762); experiment: Determination of TRPA1 activity in vitro (TRPA1 antagonism in vitro); type: cell-based; conditions: procedure of Wei et al., Anesthesiology 111 (2009) 147-154
Sequence (O75762 whole entry): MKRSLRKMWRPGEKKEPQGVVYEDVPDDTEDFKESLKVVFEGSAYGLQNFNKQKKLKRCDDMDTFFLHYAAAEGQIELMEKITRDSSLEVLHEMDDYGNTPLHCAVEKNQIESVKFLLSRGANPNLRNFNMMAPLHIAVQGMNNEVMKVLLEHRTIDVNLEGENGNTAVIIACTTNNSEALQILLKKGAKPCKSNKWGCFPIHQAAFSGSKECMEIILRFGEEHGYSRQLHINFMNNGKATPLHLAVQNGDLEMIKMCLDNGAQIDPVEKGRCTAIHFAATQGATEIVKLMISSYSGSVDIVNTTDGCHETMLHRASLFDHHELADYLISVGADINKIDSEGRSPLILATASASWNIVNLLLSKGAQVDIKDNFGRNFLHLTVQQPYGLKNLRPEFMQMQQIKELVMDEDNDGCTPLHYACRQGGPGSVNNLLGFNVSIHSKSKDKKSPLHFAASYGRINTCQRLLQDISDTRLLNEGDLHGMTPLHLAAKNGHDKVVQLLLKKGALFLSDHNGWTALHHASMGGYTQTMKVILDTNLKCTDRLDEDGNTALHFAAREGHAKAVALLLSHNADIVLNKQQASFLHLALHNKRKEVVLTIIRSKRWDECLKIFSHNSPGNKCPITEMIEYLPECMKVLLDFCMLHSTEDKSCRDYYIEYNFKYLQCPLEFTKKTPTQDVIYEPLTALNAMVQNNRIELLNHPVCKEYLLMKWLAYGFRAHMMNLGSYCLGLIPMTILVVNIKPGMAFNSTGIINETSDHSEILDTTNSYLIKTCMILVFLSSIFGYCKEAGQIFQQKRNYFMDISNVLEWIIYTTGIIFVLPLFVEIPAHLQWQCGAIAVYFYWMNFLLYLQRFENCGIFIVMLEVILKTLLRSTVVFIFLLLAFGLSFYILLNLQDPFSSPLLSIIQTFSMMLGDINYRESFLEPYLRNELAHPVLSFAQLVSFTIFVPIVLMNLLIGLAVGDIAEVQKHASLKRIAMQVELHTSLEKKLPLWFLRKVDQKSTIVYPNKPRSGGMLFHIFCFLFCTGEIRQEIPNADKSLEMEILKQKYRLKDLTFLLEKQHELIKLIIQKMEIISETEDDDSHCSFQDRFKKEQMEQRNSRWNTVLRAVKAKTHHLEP

IC50	SMILES
13.8 µM	C#CC(C)(C)NC(=O)c1cncnc1NCC(F)(F)C(F)(F)F [Example 132, N-(2-Methylbut-3-yn-2-yl)-4-(2,2,3,3,3-pentafluoropropylamino)-pyrimidine-5-carboxamide]
0.1 µM	C#CC(C)(C)NC(=O)c1cc(C(F)(F)F)ccc1NC1CCC1 [Example 23, 2-(Cyclobutylamino)-N-(2-methylbut-3-yn-2-yl)-5-(trifluoromethyl)-benzamide]
1.7 µM	C#CC(C)(C)NC(=O)c1cc(F)ccc1NCCC(F)(F)F [Example 104, 5-Fluoro-N-(2-methylbut-3-yn-2-yl)-2-(3,3,3-trifluoropropylamino)benzamide]
13 µM	C#CC(C)(C)NC(=O)c1cc2c(cc1NCC(C)C)OCCCO2 [Example 8, 8-(Isobutylamino)-N-(2-methylbut-3 yn-2-yl)-3,4-dihydro-2H-benzo[b][1,4]dioxepine-7-carboxamide]
1.2 µM	C#CC(C)(C)NC(=O)c1cc(F)ccc1NCCCC(F)(F)F [Example 54, 5-Fluoro-N-(2-methylbut-3-yn-2-yl)-2-(4,4,4-trifluorobutylamino)-benzamide]
5.5 µM	C#CC(C)(C)NC(=O)c1cc(F)c(F)cc1NC(C)C [Example 67, 4,5-Difluoro-2-(isopropylamino)-N-(2-methylbut-3-yn-2-yl)benzamide]
3.3 µM	C#CC(C)(C)NC(=O)c1cc(Cl)cnc1NC(C)C [Example 26, 5-Chloro-2-(isopropylamino)-N-(2-methylbut-3-yn-2-yl)-nicotinamide]
2.4 µM	C#CC(C)(C)NC(=O)c1cc(C(F)F)cnc1NC1CC(F)(F)C1 [Example 152, 2-(3,3-Difluorocyclobutylamino)-5-(difluoromethyl)-N-(2-methylbut-3-yn-2-yl)nicotinamide]
0.1 µM	C#CC(C)(CC)NC(=O)c1cccnc1Nc1ccc(F)c(F)c1 (centres unmarked) [Example 195, 2-(3,4-Difluorophenylamino)-N-(3-methylpent-1-yn-3-yl)nicotinamide]
0.5 µM	C#CC(C)(CC)NC(=O)c1cccnc1Nc1ccccc1F (centres unmarked) [Example 185, 2-(2-Fluorophenylamino)-N-(3-methylpent-1-yn-3-yl)nicotinamide]
2.7 µM	C#CC(C)(C)NC(=O)c1cccnc1Nc1ccc(F)c(C#N)c1 [Example 181, 2-(3-Cyano-4-fluorophenylamino)-N-(2-methylbut-3-yn-2-yl)nicotinamide]
5.1 µM	C#CC(C)(C)NC(=O)c1cnc(C(F)(F)F)nc1NC(C)(C)CC [Example 109, N-(2-Methylbut-3-yn-2-yl)-4-(tert-pentylamino)-2-(trifluoromethyl)-pyrimidine-5-carboxamide]
1.3 µM	C#CC(C)(C)NC(=O)c1ccccc1NCC(C)(C)C [Example 81, N-(2-Methylbut-3-yn-2-yl)-2-(neopentylamino)benzamide]
3.2 µM	C#CC(C)(C)NC(=O)c1cccnc1Nc1cc(Cl)cc(OC)c1 [Example 167, 2-(3-Chloro-5-methoxyphenylamino)-N-(2-methylbut-3-yn-2-yl)nicotinamide]
3.2 µM	C#CC(C)(C)NC(=O)c1cccnc1Nc1ccc(Cl)c(OC)c1 [Example 196, 2-(4-Chloro-3-methoxyphenylamino)-N-(2-methylbut-3-yn-2-yl)nicotinamide]
0.7 µM	C#CC(C)(C)NC(=O)c1ccc(F)cc1NCCC(F)(F)F [Example 71, 4-Fluoro-N-(2-methylbut-3-yn-2-yl)-2-(3,3,3-trifluoropropylamino) benzamide]
0.6 µM	C#CC(C)(C)NC(=O)c1cc(C(F)(F)F)ccc1NCC(F)(F)F [Example 39, N-(2-Methylbut-3-yn-2-yl)-2-(2,2,2-trifluoroethylamino)-5-(trifluoromethyl) benzamide]
0.2 µM	C#CC(C)(CC)NC(=O)c1cccnc1Nc1ccc(F)cc1 (centres unmarked) [Example 198, 2-(4-Fluorophenylamino)-N-(3-methylpent-1-yn-3-yl)nicotinamide]
3 µM	C#CC(C)(C)NC(=O)c1cccc(F)c1NCCC(F)(F)F [Example 15, 3-Fluoro-N-(2-methylbut-3-yn-2-yl)-2-(3,3,3-trifluoropropylamino)-benzamide]
8.6 µM	C#CC(C)(C)NC(=O)c1ccc(C(F)(F)F)cc1NCCOC [Example 89, 2-(2-Methoxyethylamino)-N-(2-methylbut-3-yn-2-yl)-4-(trifluoro-methyl)benzamide]
16.7 µM	C#CC(C)(C)NC(=O)c1cccnc1Nc1cc(OC)ccc1Cl [Example 188, 2-(2-Chloro-5-methoxyphenylamino)-N-(2-methylbut-3-yn-2-yl)nicotinamide]
4.9 µM	C#CC(C)(C)NC(=O)c1cc(F)c(F)cc1NCC [Example 65, 2-(Ethylamino)-4,5-difluoro-N-(2-methylbut-3-yn-2-yl)benzamide]
3.3 µM	C#CC(C)(C)NC(=O)c1cc(F)cnc1NCCOc1ccc(F)cc1 [Example 145, 5-Fluoro-2-(2-(4-fluorophenoxy)ethylamino)-N-(2-methylbut-3-yn-2-yl)nicotinamide]

IC50	SMILES
12.9 µM	C#CC(C)(C)NC(=O)c1cccc2c(C)c(C)[nH]c12 [Example 118, 2,3-Dimethyl-N-(2-methylbut-3-yn-2-yl)-1H-indole-7-carboxamide]
4.3 µM	C#CC(C)(C)NC(=O)c1cc(F)c(N2CCOCC2)nc1NC(C)C [Example 114, 5-Fluoro-2-(isopropylamino)-N-(2-methylbut-3-yn-2-yl)-6-morpholinonicotinamide]
1.1 µM	C#CC(C)(C)NC(=O)c1cc(C(F)(F)F)cnc1NC(C)(C)C [Example 128, 2-(tert-Butylamino)-N-(2-methylbut-3-yn-2-yl)-5-(trifluoromethyl)-nicotinamide]
0.2 µM	C#CC(C)(CC)NC(=O)c1cccnc1Nc1cc(F)cc(F)c1 (centres unmarked) [Example 186, 2-(3,5-Difluorophenylamino)-N-(3-methylpent-1-yn-3-yl)nicotinamide]
2.1 µM	C#CC(C)(C)NC(=O)c1ccsc1NCCCC [Example 130, 2-(Butylamino)-N-(2-methylbut-3-yn-2-yl)thiophene-3-carboxamide]
1.9 µM	C#CC(C)(C)NC(=O)c1cc(F)cnc1NCCC(F)(F)F [Example 1, 5-Fluoro-N-(2-methylbut-3-yn-2-yl)-2-(3,3,3-trifluoropropylamino)-nicotinamide]
10.8 µM	C#CC(C)(C)NC(=O)c1cccnc1Nc1cc(OC)ccc1F [Example 179, 2-(2-Fluoro-5-methoxyphenylamino)-N-(2-methylbut-3-yn-2-yl)nicotinamide]
0.5 µM	C#CC(C)(C)NC(=O)c1cc(C(F)(F)F)ccc1NCCC(F)(F)F [Example 12, N-(2-Methylbut-3-yn-2-yl)-5-(trifluoromethyl)-2-(3,33-trifluoropropylamino) benzamide]
1.6 µM	C#CC(C)(C)NC(=O)c1cc(C(F)(F)F)cnc1NCC(F)F [Example 56, 2-(2,2-Difluoroethylamino)-N-(2-methylbut-3-yn-2-yl)-5-(trifluoromethyl)nicotinamide]
2.4 µM	C#CC(C)(C)NC(=O)c1ccc(C(F)(F)F)nc1NC(C)(C)C [Example 111, 2-(tert-Butylamino)-N-(2-methylbut-3-yn-2-yl)-6-(trifluoromethyl)-nicotinamide]
1.1 µM	C#CC(C)(C)NC(=O)c1cc(Cl)ccc1NCCC [Example 3, 5-Chloro-N-(2-methylbut-3-yn-2-ylbut-3)-2-(propylamino)benzamide]
1.1 µM	C#CC(C)(CC(C)C)NC(=O)c1cc(F)c(F)cc1NCC(C)C (centres unmarked) [Example 68, N-(3,5-Dimethylhex-1-yn-3-yl)-4,5-difluoro-2-(isobutylamino)-benzamide]
0.5 µM	C#CC(C)(C)NC(=O)c1ccccc1NCC(F)(F)C(F)(F)F [Example 19, N-(2-Methylbut-3-yn-2-yl)-2-(2,2,3,3,3-pentafluoropropylamino)-benzamide]
0.7 µM	C#CC(C)(CC)NC(=O)c1cccnc1Nc1ccc(Cl)c(OC)c1 (centres unmarked) [Example 197, 2-(4-Chloro-3-methoxyphenylamino)-N-(3-methylpent-1-yn-3-yl)nicotinamide]
1.9 µM	C#CC(C)(C)NC(=O)c1cc(F)ccc1NCCOC(F)(F)F [Example 53, 5-Fluoro-N-(2-methylbut-3-yn-2-yl)-2-(2-(trifluoromethoxy)-ethylamino)benzamide]
4.7 µM	C#CC(C)(C)NC(=O)c1cc(F)cnc1NCC(C)(F)F [Example 57, 2-(2,2-Difluoropropylamino)-5-fluoro-N-(2-methylbut-3-yn-2-yl)nicotinamide]
3.8 µM	C#CC(C)(C)NC(=O)c1cccnc1NC1CCC(F)(F)CC1 [Example 123, 2-(4,4-Difluorocyclohexylamino)-N-(2-methylbut-3-yn-2-yl)nicotinamide]
5.9 µM	C#CC(C)(C)NC(=O)c1cc(Cl)cnc1NCCCOCC [Example 146, 5-Chloro-2-(3-ethoxypropylamino)-N-(2-methylbut-3-yn-2-yl)nicotinamide]
8.7 µM	C#CC(C)(C)NC(=O)c1sccc1NCC(C)C [Example 136, 3-(Isobutylamino)-N-(2-methylbut-3-yn-2-yl)thiophene-2-carboxamide]
0.5 µM	C#CC(CC)(CC)NC(=O)c1cc(I)ccc1NCCOC [Example 47, N-(3-Ethylpent-1-yn-3-yl)-5-iodo-2-(2-methoxyethylamino)benzamide]
9.9 µM	C#CC(C)(C)NC(=O)c1cc(F)cnc1Nc1cc(C)ns1 [Example 137, 5-Fluoro-N-(2-methylbut-3-yn-2-yl)-2-(3-methylisothiazol-5-ylamino)nicotinamide]
4.9 µM	C#CC(C)(CC)NC(=O)c1cccnc1Nc1cccc(OC)c1F (centres unmarked) [Example 170, 2-(2-Fluoro-3-methoxyphenylamino)-N-(3-methylpent-1-yn-3-yl)nicotinamide]
4.8 µM	C#CC(C)(C)NC(=O)c1cccnc1Nc1ccccc1F [Example 122, 2-(2-Fluorophenylamino)-N-(2-methylbut-3-yn-2-yl)nicotinamide]

SMILES	IC50
C#CC(CC)(CC)NC(=O)c1cc(Br)ccc1NCCOC [Example 43, 5-Bromo-(3-ethylpent-1-yn-3yl)-2-(2-methoxyethylamino)-benzamide]	1 µM
